Series [1] can be described thus: Mouse toxicity evaluation. To be noted: once daily oral gavage in corn oil, 7 days; 202 22.1 mg/kg, 209 4.2 mg/kg. It counts as in vivo, C57BL/6 mice. The method, then: Groups of five C57BL/6 mice (Charles River Laboratories International, Inc.; mice were eight weeks old) were treated once daily with HPs 202 (22.1 mg/kg) and 209 (4.2 mg/kg) for 7 days via oral gavage (0.25 mL of formulated corn oil for 25 gram mouse on average).

A short description of series [2]: in vitro. To be noted: human. It counts as cell-based.
In series [3] the test system is HeLa cells. As to the kind of experiment: in vitro. It counts as cell-based. To be noted: human, 24 h.
For series [4], the system named is MRSA BAA-1707. As to the kind of experiment: MIC assay (broth microdilution, CLSI). Conditions: Staphylococcus aureus, read-out: MIC, MRSA BAA-1707.
Series [5] concerns MRSA BAA-44. As to the kind of experiment: MIC assay (broth microdilution, CLSI). To be noted: Staphylococcus aureus, read-out: MIC, MRSA BAA-44.
Series [6] deals with M. tuberculosis H37Ra (ATCC 25177). Nature of the series: Mycobacterium tuberculosis MIC assay. It counts as cell-based. To be noted: Mycobacterium tuberculosis. Summed up: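 Culture diluted to OD600 0.01 and exposed to compounds in 0.5% final DMSO, each compound tested in three rows. Growth read as OD600 absorbance. Data from three independent experiments.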
Series [7] concerns Staphylococcus epidermidis (ATCC 12228). As to the kind of experiment: MIC assay (broth microdilution, CLSI). It counts as cell-based. To be noted: Staphylococcus epidermidis, ATCC12228.
The subject of series [8] is VRE (E. faecium ATCC 700221) planktonic cells and biofilms. Nature of the series: Calgary Biofilm Device (CBD) assay, MBC/MBEC. To be noted: c lowest concentration tested; for MBC: Enterococcus. It counts as cell-based, Enterococcus faecium.
The test system of series [9] is S. epidermidis 12228. As to the kind of experiment: MIC assay with Tiron or metal(II) cation co-treatment. Conditions: Staphylococcus epidermidis. It counts as cell-based, Staphylococcus epidermidis.
The subject of series [10] is MRSA BAA-1707 planktonic cells and biofilms. Nature of the series: Calgary Biofilm Device (CBD) assay, MBC/MBEC. Conditions: Staphylococcus aureus, read-out: MRSA BAA-1707 MBC.
Series [11] relates to Staphylococcus epidermidis (ATCC 35984), MRSE. Nature of the series: MIC assay (broth microdilution, CLSI). It counts as cell-based. Conditions: for MIC: Staphylococcus epidermidis.
Series [12] has as its system MRSA-1 (methicillin-resistant Staphylococcus aureus clinical isolate). Nature of the series: MIC assay (broth microdilution, CLSI). It counts as cell-based. To be noted: Staphylococcus aureus, MRSA, read-out: MIC, MRSA-1.
In series [13] the test system is human red blood cells. Nature of the series: Hemolysis assay with red blood cells. To be noted: human, 1 h, 200 μM, pH 7.2. In outline: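 Hemolysis expressed as percent of the Triton X signal with DMSO as zero, using OD405 of supernatant. Compounds from DMSO stocks were incubated with triple-washed human erythrocytes for 1 hour at 37° C. before centrifugation; three independent experiments.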

In series [14] the test system is MRSA-2. Nature of the series: MIC assay with Tiron or metal(II) cation co-treatment. It counts as cell-based, Staphylococcus aureus. Conditions: Staphylococcus aureus.
In series [15] the test system is E. faecium 700221 (VRE). The series is described as above. It counts as cell-based, Enterococcus faecium.
Series [16] has as its system Enterococcus faecium (ATCC 700221), VRE. Nature of the series: MIC assay (broth microdilution, CLSI). It counts as cell-based.
Series [17] deals with methicillin-sensitive S. aureus strains. As to the kind of experiment: MIC assay. It counts as cell-based. To be noted: Staphylococcus aureus; read-out: MIC against methicillin-sensitive S. aureus strains.
In series [18] the test system is S. aureus clinical isolate SA 156. Nature of the series: MIC assay (broth microdilution, CLSI). Conditions: Staphylococcus aureus, read-out: MIC, SA 156.
The test system of series [19] is S. aureus clinical isolate SA 129. Nature of the series: MIC assay (broth microdilution, CLSI). To be noted: Staphylococcus aureus, read-out: MIC, SA 129.
Series [20] relates to S. aureus clinical isolate SA 138. Nature of the series: MIC assay (broth microdilution, CLSI). Conditions: Staphylococcus aureus, read-out: MIC, SA 138.

Converted amounts (≈) assume the structure as drawn. Like-named read-outs stand apart in the source and are kept apart here. Marks after values point to notes of the source that are not given here.

Turning to `Oc1c(Br)cc(Br)c2nc3cc(Cl)c(Cl)cc3nc12` [Compound 16], in series [1], the “adverse side effects (changes in weight, seizure, death)” value is given as “no adverse side effects”. Besides, the IC50 at 24 h in series [2] was > 100 µM. Further, the 50% inhibitory concentration (IC50) in series [3] is > 100 µM. Besides, the MIC in series [4] is 25 µM (≈ 10.6 µg/mL); in series [5], 50 µM (≈ 21.1 µg/mL); in series [6] (168 h, M. tuberculosis H37Ra, 7 days, read-out: Mtb MIC), 6.25 µM (≈ 2.64 µg/mL); in series [6] (Table 7, read-out: MIC, M. tuberculosis H37Ra) it was 6.25 µM (≈ 2.64 µg/mL); in series [7] (Table 2A, read-out: MIC, Staphylococcus epidermidis (ATCC 12228)) it was 0.05 to 0.1 µM (≈ 0.0211 to 0.0423 µg/mL); in series [7] (Table 7, b lowest concentration tested, read-out: MIC, S. epidermidis 12228), 0.08 µM (≈ 0.0338 µg/mL). Also, the minimal inhibitory concentration (MIC) was 0.1 µM in [9] (S. epidermidis 12228, without Tiron, read-out: MIC); 0.1 µM in [9] (S. epidermidis 12228, read-out: MIC with Tiron); 0.2 to 0.39 µM (≈ 0.0846 to 0.165 µg/mL) in [11] (Table 2A, read-out: MIC, Staphylococcus epidermidis (ATCC 35984)); 0.3 µM (≈ 0.127 µg/mL) in series [11] (Table 2B, read-out: MIC, Staphylococcus epidermidis (ATCC 35984)); 0.3 to 0.59 µM (≈ 0.127 to 0.25 µg/mL) in series [11] (Table 7, read-out: MIC, MRSE 35984); 12.5 µM (≈ 5.29 µg/mL) in [12] (Table 2A). The minimum inhibitory concentration (MIC) in series [12] (Table 2B, b lowest concentration tested) is 12.5 µM (≈ 5.29 µg/mL); in series [14] (MRSA-2, without Tiron, read-out: MIC), 12.5 µM; in series [14] (MRSA-2, b lowest concentration tested, read-out: MIC with Tiron), 0.1 µM; in series [15] (VRE 700221, without Tiron, read-out: MIC), 0.39 µM; in [15] (VRE 700221, read-out: MIC with Tiron) it was 0.39 µM; in series [16] (Enterococcus faecium, Table 2A, read-out: MIC, Enterococcus faecium (ATCC 700221)), 0.39 µM (≈ 0.165 µg/mL). Besides, the MIC came to 0.39 µM (≈ 0.165 µg/mL) in series [16] (Enterococcus faecium, Table 2B, b lowest concentration tested, read-out: MIC, Enterococcus faecium (ATCC 700221)) and 0.39 µM (≈ 0.165 µg/mL) in series [16] (Table 7, b lowest concentration tested, read-out: MIC, VRE 700221). Further, the MBC was 0.39 µM (≈ 0.165 µg/mL) in [8] (Table 5, read-out: VRE MBC); 0.39 µM (≈ 0.165 µg/mL) in series [8] (Table 8, read-out: VRE 700221 MBC); 6.25 µM (≈ 2.64 µg/mL) in series [10]. Besides, the “VRE MBEC” value in series [8] (Table 5) is 0.39/0.39 μM. For the same molecule, the “MIC, MRSE 35984” value in [11] (Table 7) is recorded as 0.30^a μM. In addition, in series [13], the “% Hemolysis (200 μM)” value is recorded as ≤1%.
In the case of `COc1cccc(OC)c1C(=O)N[C@@H]1C(=O)N2[C@@H]1SC(C)(C)[C@@H]2C(=O)O` [Methicillin, methicillin, reference compound], the MIC in [17] was 0.8 to 1.56 µM (≈ 0.304 to 0.593 µg/mL); in series [18], 50 µM (≈ 19 µg/mL); in series [19], 25 µM (≈ 9.51 µg/mL); in series [20], 25 µM (≈ 9.51 µg/mL).

Values taken from patent publication US20180312473A1, “PHENAZINE DERIVATIVES AS ANTIMICROBIAL AGENTS” (priority 2015, published 2018).
